According to PMC5786306, “An AKAP-Lbc-RhoA interaction inhibitor promotes the translocation of aquaporin-2 to the plasma membrane of renal collecting duct principal cells” (PLoS ONE, 2018):

Tested on: AQP2 insertion into the plasma membrane of IMCD cells
Experiment: Biotinylation of cell surface proteins
Type: cell-based, rat
Conditions: Scaff10-8 30 μM, 1 or 24 h, forskolin 30 μM, 30 min
Method: The assay was performed according to Bogum et al.. IMCD cells were treated with Scaff10-8 at a concentration of 30 μM for 1 or 24 h (0.3% DMSO final concentration). DMSO (0.3%) was used as a control for the 24 h of incubation. Cells were stimulated with forskolin (30 min, 30 μM). Cells were washed twice with ice-cold PBS and incubated with biotinylation buffer (500 μg Biotin per well; 10 mM triethanolamine; 150 mM NaCl; 1 mM MgCl2; 0.1 mM CaCl2; pH 8.0) for 60 min at 4°C. After two washing steps with biotinylation buffer, cells were incubated for 10 min with quenching buffer (50 mM NH4Cl in PBS) at 4°C. Lysates were prepared using biotinylation lysis buffer 1 (SLB; 0.5% Triton X-100; 0.2% BSA; Complete mini EDTA-free). Lysates were sonicated and incubated for 20 min at 37°C. Cell debris was removed by centrifugation (30 min, 15,000x g, 4°C). Lysates were incubated with 80 μl streptavidin agarose beads at 4°C overnight. Beads were washed three times with biotinylation lysis buffer 1 and 2 (SLB; 0.5% Triton X-100; Complete mini EDTA-free). Proteins were eluted using sample buffer and analyzed by Western blotting.
(A) IMCD cells were treated with either compound (30 μM) or DMSO for 1 or 24 h. Membrane proteins were biotinylated followed by precipitation with streptavidin agarose beads. […] (B) Signals from A were quantified by densitometric analysis. […]

COc1ccc(-c2coc3cc4oc(=O)c(CCC(=O)O)c(C)c4cc23)cc1 [Scaff10-8, 3-[3-(4-Methoxyphenyl)-5-methyl-7-oxo-furo[3,2-g]chromen-6-yl] propanoic acid]
insertion of AQP2 into the plasma membrane: does not promote the insertion of AQP2
